Source: publication PMC9607644, “Glycoconjugation of Quinoline Derivatives Using the C-6 Position in Sugars as a Strategy for Improving the Selectivity and Cytotoxicity of Functionalized Compounds” (Molecules, 2022)
Marks after values point to notes of the source that are not given here.

Tests used:
HCT-116 cells = assay: MTT cytotoxicity assay, HCT-116; assay type: cell-based, human; conditions: for IC50: Homo sapiens, HCT-116; for IC50 / growth inhibitory activity in words, HCT-116: MTT
Description: (§1) An in vitro biological test package was performed for the obtained derivatives. […] The MTT test is a colorimetric method for detecting proliferating cells. It is based on the ability of the enzyme mitochondrial dehydrogenase to convert yellow tetrazole salt (MTT) into purple formazan. The amount of the product formed in the reaction, determined spectrophotometrically, is proportional to the number of living cells.
(§2) The in vitro cytotoxicity of the test compounds was determined by the MTT (3-[4,5–dimethylthiazol-2-yl]-2,5-diphenyltetrazolium bromide) test (Sigma-Aldrich, Taufkirchen, Germany) according to the manufacturer’s protocol. At the beginning, for each cell line were determined the optimal seeding densities to ensure exponential growth throughout the experimental period. The confluent layer of cells were trypsinized, collected, and suspended in a growth medium. […] Then, the culture medium was replaced with solutions of different concentrations of test compounds in a fresh medium. Stock solutions of test compounds were prepared in DMSO and diluted to final concentrations with appropriate volumes of the growth medium directly before the experiment. Cells suspended in a medium supplemented with 0.5% DMSO (the amount of DMSO necessary to dissolve the highest dose of the respective sample) were used as a control of the experiment. […] The compound-treated cells were incubated for a further 24–72 h. […] After this time, the MTT dye was carefully removed, and the acquired formazan crystals were dissolved by DMSO (Chempur, Piekary Śląskie, Poland). The proliferation was evaluated by measuring the formazan product’s absorbance at a wavelength of 570 nm with a microplate spectrophotometer (Epoch, BioTek, Winooski, VT, USA). All experiments were conducted in triplicate with four technical repeats for each tested concentration. Results were expressed as the percentage change in the viability of the test cells relative to the untreated control cells and calculated as the inhibitory concentration (IC50). […] The results are expressed as the average value ± standard deviation (SD).

MCF-7 cells = assay: MTT cytotoxicity assay, MCF-7; assay type: cell-based, human; conditions: for IC50: Homo sapiens, MCF7, incubation time 72 h; for IC50 / growth inhibitory activity in words, MCF-7: MTT; for Selectivity Index (SI) MCF-7: IC50 NHDF-Neo / IC50 MCF-7, 72 h incubation
Description: as §1, §2

NHDF-Neo cells = assay: MTT cytotoxicity assay, NHDF-Neo; assay type: cell-based; conditions: Homo sapiens, incubation time 72 h
Description: An in vitro biological test package was performed for the obtained derivatives. All newly synthesized compounds were assessed for their cytotoxic activity against human cell lines with increased GLUT expression: the colon cancer cell line (HCT-116) and the breast cancer cell line (MCF-7), as well as on normal human dermal fibroblasts cells (NHDF-Neo), using the MTT assay (3-(4,5-dimethylthiazol-2-yl)-2,5-diphenyltetrazolium bromide). The MTT test is a colorimetric method for detecting proliferating cells. It is based on the ability of the enzyme mitochondrial dehydrogenase to convert yellow tetrazole salt (MTT) into purple formazan. The amount of the product formed in the reaction, determined spectrophotometrically, is proportional to the number of living cells. The antiproliferative activity was expressed as the concentration that caused 50% inhibition of the growth of the population of cells treated with the test compounds relative to the control cells (inhibitory concentration activity—IC50). Table 1 and Table 2 summarize the IC50 values calculated for all tested compounds.
The in vitro cytotoxicity of the test compounds was determined by the MTT (3-[4,5–dimethylthiazol-2-yl]-2,5-diphenyltetrazolium bromide) test (Sigma-Aldrich, Taufkirchen, Germany) according to the manufacturer’s protocol. At the beginning, for each cell line were determined the optimal seeding densities to ensure exponential growth throughout the experimental period. The confluent layer of cells were trypsinized, collected, and suspended in a growth medium. The cell suspension were then seeded into 96-well plates at a density of 1 × 10^4 or 2 × 10^3 (HCT-116) or 5 × 10^3 (MCF-7, NHDF-Neo) per well and incubated for 24 h under standard conditions (5% CO2, 37 °C). Then, the culture medium was replaced with solutions of different concentrations of test compounds in a fresh medium. Stock solutions of test compounds were prepared in DMSO and diluted to final concentrations with appropriate volumes of the growth medium directly before the experiment. Cells suspended in a medium supplemented with 0.5% DMSO (the amount of DMSO necessary to dissolve the highest dose of the respective sample) were used as a control of the experiment. […] The compound-treated cells were incubated for a further 24–72 h. After that, the medium was removed and the MTT solution (50 µL, 0.5 mg/mL in PBS) was added into each well and incubated for another 3 h under standard conditions (5% CO2, 37 °C). After this time, the MTT dye was carefully removed, and the acquired formazan crystals were dissolved by DMSO (Chempur, Piekary Śląskie, Poland). The proliferation was evaluated by measuring the formazan product’s absorbance at a wavelength of 570 nm with a microplate spectrophotometer (Epoch, BioTek, Winooski, VT, USA). All experiments were conducted in triplicate with four technical repeats for each tested concentration. Results were expressed as the percentage change in the viability of the test cells relative to the untreated control cells and calculated as the inhibitory concentration (IC50). The IC50 values were defined as the drug concentration that was necessary to reduce cell proliferation to 50% of the untreated control and this parameter was calculated using CalcuSyn software (version 2.0, Biosoft, Cambridge, UK). The results are expressed as the average value ± standard deviation (SD).

[1] = IC50 NHDF-Neo / IC50 HCT-116, HCT-116 incubation time 24 h
[2] = IC50 NHDF-Neo / IC50 HCT-116, 72 h incubation

Row | SMILES | IC50 (HCT-116 cells; incubation time 24 h) | IC50 (MCF-7 cells) | further results
1 | CC(=O)OC1O[C@H](CN=[N+]=[N-])[C@@H](OC(C)=O)[C@H](OC(C)=O)[C@H]1OC(C)=O (stereo partly drawn) [Compound 5, 1,2,3,4-tetra-O-acetyl-6-azido-6-deoxy-D-glucopyranose] | > 800 µM | 201 ± 2.09 µM | –
2 | [N-]=[N+]=NC[C@H]1OC(O)[C@H](O)[C@@H](O)[C@@H]1O (stereo partly drawn) [Compound 6, 6-azido-6-deoxy-D-glucopyranose] | > 800 µM | > 800 µM | –
3 | [N-]=[N+]=NC[C@H]1OC(O)[C@H](O)[C@@H](O)[C@H]1O (stereo partly drawn) [Compound 11, 6-azido-6-deoxy-D-galactopyranose] | > 800 µM | > 800 µM | –
4 | CC(=O)OC1O[C@H](CN=[N+]=[N-])[C@H](OC(C)=O)[C@H](OC(C)=O)[C@H]1OC(C)=O (stereo partly drawn) [Compound 12, 1,2,3,4-tetra-O-acetyl-6-azido-6-deoxy-D-galactopyranose] | > 800 µM | 641.2 ± 1.79 µM | –
5 | C#CCNC(=O)[C@H]1O[C@@H](OC(C)=O)[C@H](OC(C)=O)[C@@H](OC(C)=O)[C@@H]1OC(C)=O [Compound 15, 1,2,3,4-tetra-O-acetyl-N-(prop-2-yn-1-yl)-β-D-glucopyranuronic acid amide] | 584 ± 9.39 µM | 714 ± 15.7 µM | –
6 | C#CCNC(=O)[C@H]1OC(O)[C@H](O)[C@@H](O)[C@@H]1O (stereo partly drawn) [Compound 16, N-(prop-2-yn-1-yl)-D-glucopyranuronic acid amide] | > 800 µM | > 800 µM | –
7 | [N-]=[N+]=NC[C@H]1O[C@H](O[C@H]2O[C@H](CN=[N+]=[N-])[C@@H](O)[C@H](O)[C@H]2O)[C@H](O)[C@@H](O)[C@@H]1O [Compound 20, 6,6′-diazido-6,6′-dideoxy-D-trehalose] | > 800 µM | > 800 µM | melting point: 118 °C
8 | CC(=O)O[C@@H]1[C@@H](OC(C)=O)[C@@H](O[C@H]2O[C@H](CN=[N+]=[N-])[C@@H](OC(C)=O)[C@H](OC(C)=O)[C@H]2OC(C)=O)O[C@H](CN=[N+]=[N-])[C@H]1OC(C)=O [Compound 23, 2,3,4,2′,3′,4′-hexa-O-acetyl-6,6′-diazido-6,6′-dideoxy-D-trehalose] | > 800 µM | > 800 µM | melting point: 92 to 93 °C
9 | CC(=O)OC1O[C@H](Cn2cc(CO)nn2)[C@@H](OC(C)=O)[C@H](OC(C)=O)[C@H]1OC(C)=O (stereo partly drawn) [Compound 29] | > 800 µM | > 800 µM | –
10 | OCc1cn(C[C@H]2OC(O)[C@H](O)[C@@H](O)[C@@H]2O)nn1 (stereo partly drawn) [Compound 30] | > 800 µM | > 800 µM | –
11 | CC(=O)OC1O[C@H](Cn2cc(CO)nn2)[C@H](OC(C)=O)[C@H](OC(C)=O)[C@H]1OC(C)=O (stereo partly drawn) [Compound 31] | > 800 µM | > 800 µM | –
12 | OCc1cn(C[C@H]2OC(O)[C@H](O)[C@@H](O)[C@H]2O)nn1 (stereo partly drawn) [Compound 32] | > 800 µM | > 800 µM | –
13 | CC(=O)OC1O[C@H](C(=O)NCc2cn(CCO)nn2)[C@@H](OC(C)=O)[C@H](OC(C)=O)[C@H]1OC(C)=O (stereo partly drawn) [Compound 33] | > 800 µM | > 800 µM | –
14 | O=C(NCc1cn(CCO)nn1)[C@H]1OC(O)[C@H](O)[C@@H](O)[C@@H]1O (stereo partly drawn) [Compound 34] | > 800 µM | > 800 µM | –
15 | CC(=O)O[C@@H]1[C@@H](OC(C)=O)[C@@H](O[C@H]2O[C@H](Cn3cc(CO)nn3)[C@@H](OC(C)=O)[C@H](OC(C)=O)[C@H]2OC(C)=O)O[C@H](Cn2cc(CO)nn2)[C@H]1OC(C)=O [Compound 35] | > 800 µM | > 800 µM | –
16 | OCc1cn(C[C@H]2O[C@H](O[C@H]3O[C@H](Cn4cc(CO)nn4)[C@@H](O)[C@H](O)[C@H]3O)[C@H](O)[C@@H](O)[C@@H]2O)nn1 [Compound 36] | > 800 µM | > 800 µM | –
17 | CC(=O)OC1O[C@H](Cn2cc(COc3cccc4cccnc34)nn2)[C@H](OC(C)=O)[C@H](OC(C)=O)[C@H]1OC(C)=O (stereo partly drawn) [Compound B-1] | 75.1 ± 1.3 µM | 36.67 ± 0.03 µM | Selectivity Index (SI) HCT-116 (HCT-116 cells; [1]): 1.08 ^b; IC50 (NHDF-Neo cells): 81.42 ± 0.52 µM; Selectivity Index (SI) MCF-7 (MCF-7 cells): 2.22
18 | OC1O[C@H](Cn2cc(COc3cccc4cccnc34)nn2)[C@H](O)[C@H](O)[C@H]1O (stereo partly drawn) [Compound B-2] | 293 ± 8 µM | 156 ± 7.4 µM | Selectivity Index (SI) HCT-116 (HCT-116 cells; [1]): 0.93 ^b; IC50 (NHDF-Neo cells): 271.6 ± 0.35 µM; Selectivity Index (SI) MCF-7 (MCF-7 cells): 1.74
19 | CC(=O)O[C@@H]1O[C@H](C(=O)NCc2cn(CCOc3cccc4cccnc34)nn2)[C@@H](OC(C)=O)[C@H](OC(C)=O)[C@H]1OC(C)=O [Compound C-1] | 173 ± 6.68 µM | 224 ± 7.34 µM | IC50 (HCT-116 cells; incubation time 72 h): 81.5 ± 3.36 µM; Selectivity Index (SI) HCT-116 (HCT-116 cells; [2]): 2.64; growth inhibitory activity in words, HCT-116 (HCT-116 cells): did not show significant ability to inhibit cell growth; IC50 (NHDF-Neo cells): 215 ± 3.1 µM; Selectivity Index (SI) MCF-7 (MCF-7 cells): 0.96; growth inhibitory activity in words, MCF-7 (MCF-7 cells): did not show significant ability to inhibit cell growth
20 | CC(=O)O[C@@H]1O[C@H](C(=O)NCc2cn(CCCOc3cccc4cccnc34)nn2)[C@@H](OC(C)=O)[C@H](OC(C)=O)[C@H]1OC(C)=O [Compound C-2] | 94.2 ± 1.48 µM | 157 ± 7.86 µM | IC50 (HCT-116 cells; incubation time 72 h): 62.35 ± 0.32 µM; Selectivity Index (SI) HCT-116 (HCT-116 cells; [2]): 5.11; growth inhibitory activity in words, HCT-116 (HCT-116 cells): did not show significant ability to inhibit cell growth; IC50 (NHDF-Neo cells): 318.5 ± 3.09 µM; Selectivity Index (SI) MCF-7 (MCF-7 cells): 2.03; growth inhibitory activity in words, MCF-7 (MCF-7 cells): did not show significant ability to inhibit cell growth
21 | O=C(NCc1cn(CCCOc2cccc3cccnc23)nn1)[C@H]1OC(O)[C@H](O)[C@@H](O)[C@@H]1O (stereo partly drawn) [Compound C-3] | > 800 µM | 706.6 ± 2.87 µM | IC50 (HCT-116 cells; incubation time 72 h): 767 ± 2.39 µM; growth inhibitory activity in words, HCT-116 (HCT-116 cells): inactive; IC50 (NHDF-Neo cells): > 800 µM; growth inhibitory activity in words, MCF-7 (MCF-7 cells): inactive
22 | CC(=O)O[C@@H]1[C@@H](OC(C)=O)[C@@H](O[C@H]2O[C@H](Cn3cc(COc4cccc5cccnc45)nn3)[C@@H](OC(C)=O)[C@H](OC(C)=O)[C@H]2OC(C)=O)O[C@H](Cn2cc(COc3cccc4cccnc34)nn2)[C@H]1OC(C)=O [Compound D-1] | 46.3 ± 3.12 µM | 30.7 ± 0.99 µM | IC50 (HCT-116 cells; incubation time 72 h): 26.3 ± 0.72 µM; Selectivity Index (SI) HCT-116 (HCT-116 cells; [2]): 1.31; IC50 (NHDF-Neo cells): 34.5 ± 0.39 µM; Selectivity Index (SI) MCF-7 (MCF-7 cells): 1.12
